Measured values: patent US20210198269A1, “INHIBITORS OF GLUCOSE TRANSPORTERS (GLUTs)” (LEAD DISCOVERY CENTER GMBH, priority 2018, published 2021)
pIC50: −log10 of the molar value.

Experiments:
Format in all cases: cell-based
[1] = molecular target: T1, GLUT2 (Homo sapiens, UniProt P11168); assay: GLUT2 transporter activity assay in CHO-hGLUT2 cells (indirect, intracellular ATP levels); details: CHO-hGLUT2 cell line; read-out: GLUT2 inhibitory activity (IC50)
T1 sequence (P11168 1-524): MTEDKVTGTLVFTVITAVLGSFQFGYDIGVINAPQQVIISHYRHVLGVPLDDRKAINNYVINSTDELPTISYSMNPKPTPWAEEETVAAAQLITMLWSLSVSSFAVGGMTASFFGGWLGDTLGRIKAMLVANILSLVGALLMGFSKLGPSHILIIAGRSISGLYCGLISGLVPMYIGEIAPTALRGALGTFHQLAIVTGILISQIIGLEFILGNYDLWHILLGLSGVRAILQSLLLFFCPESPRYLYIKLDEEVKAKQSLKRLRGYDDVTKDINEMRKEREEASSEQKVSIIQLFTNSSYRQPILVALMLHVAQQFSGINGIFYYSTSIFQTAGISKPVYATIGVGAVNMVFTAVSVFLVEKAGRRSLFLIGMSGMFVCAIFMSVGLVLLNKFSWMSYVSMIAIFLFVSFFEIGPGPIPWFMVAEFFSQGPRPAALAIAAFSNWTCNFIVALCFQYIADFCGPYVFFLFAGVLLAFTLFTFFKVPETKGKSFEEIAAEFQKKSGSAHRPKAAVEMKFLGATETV
Source text: (§1) GLUT 1, 2, 3 and 4 Transporter Activity Assays
(§2) Assays were based on the specificity assays reported by Kapoor et al., Proceedings of the National Academy of Sciences 2016, 113 (17) 4711-4716. For GLUT1, GLUT2, GLUT3 and GLUT4 specificity testing DLD1, CHO-hGLUT2, DLD-1-GLUT1−/− and CHO-hGLUT4 cell lines were used.
Example 8-3: Indirect Measurement of GLUT2 (SLC2A2) Activity by Quantification of Intracellular ATP Levels
A combination of small-molecule inhibitors of mitochondrial electron transport chain and glucose catabolism synergistically suppress ATP production and impair cellular viability (Ulanovskaya et al., 2008, 2011; Liu, et al. 2001). We therefore used CHOK1 cells overexpressing SLC2A2 (CHOK1-SLC2A2) in combination with an oxidative phosphorylation inhibitor (Rotenon) to identify GLUT2 inhibitors. CHOK1-SLC2A2 cells were purchased from creative biogene (catNo: CSC-SC014484) and maintained in RPMI1640 supplemented with 10% FBS and 2 mM L-Glutamine. For the Glut2-ATP-Assay, 7,500 cells were seeded in black, clear bottom 384-well plates directly in glucose- and phenolred-free RPMI1640 medium supplemented with 1% FCS and 2 mM L-glutamine and cultured overnight to reduce intracellular ATP levels. Next day, cells were washed and incubated with […] and compounds or DMSO and 2.5 mM fructose in glucose- and phenolred-free RPMI1640 medium for 40 min. The CellTiter-Glo® Luminescence Viability Assay from Promega was used to measure ATP levels. Luminescence was measured with a Victor Multilabel plate reader (Perkin Elmer). Blank values were subtracted from all readings and values were normalized to the DMSO control.

[2] = molecular target: T2, GLUT1 (Homo sapiens, UniProt P11166); assay: GLUT1 transporter activity assay (2-DG uptake) in DLD1 cells; details: DLD1 cell line; read-out: GLUT1 inhibitory activity (IC50)
T2 construct: host or cells: DLD-1 (DLD1) cells
T2 sequence (P11166 1-492): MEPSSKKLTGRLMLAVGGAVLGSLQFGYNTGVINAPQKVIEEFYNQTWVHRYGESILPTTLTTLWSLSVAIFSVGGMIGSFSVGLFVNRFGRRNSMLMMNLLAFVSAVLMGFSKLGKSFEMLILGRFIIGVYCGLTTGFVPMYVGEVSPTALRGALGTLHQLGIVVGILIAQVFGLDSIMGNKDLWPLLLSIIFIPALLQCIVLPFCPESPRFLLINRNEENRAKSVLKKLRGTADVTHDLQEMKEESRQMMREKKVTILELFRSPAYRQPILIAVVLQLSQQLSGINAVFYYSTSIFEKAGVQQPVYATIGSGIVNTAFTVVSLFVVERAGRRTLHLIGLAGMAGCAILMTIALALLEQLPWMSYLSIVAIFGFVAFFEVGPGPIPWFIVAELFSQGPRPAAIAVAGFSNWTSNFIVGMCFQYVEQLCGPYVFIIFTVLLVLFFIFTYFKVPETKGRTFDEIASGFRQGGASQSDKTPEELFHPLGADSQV
Source text: as §1, §2
(§3) Assay protocols for 2-deoxy-Glucose (2-DG) Uptake Assay with DLD1 or DLD1-Glut1(−/−) cells or 7,000 CHOK1-SLC2A4 cells lines:
(§4) 14,000 DLD1 or DLD1-Glut1(−/−) cells or 7,000 CHOK1-SLC2A4 cells were seeded in black, clear bottom 384-well plates in glucose- and phenolred-free RPMI1640 medium supplemented with 1% FCS and 2 mM L-glutamine and allowed to attach overnight. Next day, cells were washed and incubated with compounds or DMSO and 1 mM 2-DG in glucose- and phenolred-free RPMI1640 medium for 30 min. Cells were then washed and lysed in 0.06 M HCl and 1% CHAPS for 15 min at 65° C. The amount of 2-DG in the lysate was determined by means of enzyme-coupled assay. For this 16 U/mL glucose-6-phosphate dehydrogenase, 0.2 U/mL diaphorase, 0.1 mM NADP^+ and 10 μM resazurin were added to the lysates. Resorufin fluorescence was determined as a measure of 2-DG uptake at ex/em 535/590 nm with a Victor Multilabel plate reader (Perkin Elmer). Blank values were subtracted from all readings and values were normalized to the DMSO control.

[3] = molecular target: T3, GLUT4 (Homo sapiens, UniProt P14672); assay: GLUT4 transporter activity assay (2-DG uptake) in CHO-hGLUT4 cells; details: CHO-hGLUT4 cell line; read-out: GLUT4 inhibitory activity (IC50)
T3 sequence (P14672 1-509): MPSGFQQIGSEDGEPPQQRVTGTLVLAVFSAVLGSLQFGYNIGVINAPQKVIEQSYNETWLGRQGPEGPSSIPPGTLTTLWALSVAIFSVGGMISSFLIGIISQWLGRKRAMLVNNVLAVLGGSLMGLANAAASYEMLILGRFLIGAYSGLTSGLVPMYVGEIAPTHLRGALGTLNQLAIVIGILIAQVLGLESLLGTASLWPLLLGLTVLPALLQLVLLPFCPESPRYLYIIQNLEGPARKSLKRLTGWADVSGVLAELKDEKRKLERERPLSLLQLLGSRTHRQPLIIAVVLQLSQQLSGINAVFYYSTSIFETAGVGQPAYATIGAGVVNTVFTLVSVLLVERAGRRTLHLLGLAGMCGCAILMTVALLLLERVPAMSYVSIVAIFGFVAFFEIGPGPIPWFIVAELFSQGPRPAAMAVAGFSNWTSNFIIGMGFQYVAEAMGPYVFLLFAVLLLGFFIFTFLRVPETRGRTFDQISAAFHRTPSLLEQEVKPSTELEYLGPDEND
Experimental: CHOK1-SLC2A4 cells were generated by transfection of CHOK1 cells with pCMV6-Entry-GLUT4 (Origene #SC125240) using Lipofectamin2000 according to the supplier's instructions. Briefly, 1.5E5 cells/well CHOK1 cells were seeded in 6-well cell culture plates. After overnight incubation, DNA-lipid complexes (2 μg plasmid DNA, DNA:lipid ratio 1:10) were prepared in OptiMEM and then added to the cells. After 5 days incubation, 800 μg G418 was added to the culture medium to generate a stable polyclone. For monoclone selection, single cells were re-plated in 96-well plates, expanded and selected by transgene overexpression and functional performance.
as §1, §2, §3, §4

[4] = molecular target: T4, GLUT3 (Homo sapiens, UniProt P11169); assay: GLUT3 transporter activity assay (2-DG uptake) in DLD-1-GLUT1-/- cells; details: DLD-1-GLUT1-/- cell line; read-out: GLUT3 inhibitory activity (IC50)
T4 construct: host or cells: DLD-1-GLUT1(-/-) cells
T4 sequence (P11169 1-496): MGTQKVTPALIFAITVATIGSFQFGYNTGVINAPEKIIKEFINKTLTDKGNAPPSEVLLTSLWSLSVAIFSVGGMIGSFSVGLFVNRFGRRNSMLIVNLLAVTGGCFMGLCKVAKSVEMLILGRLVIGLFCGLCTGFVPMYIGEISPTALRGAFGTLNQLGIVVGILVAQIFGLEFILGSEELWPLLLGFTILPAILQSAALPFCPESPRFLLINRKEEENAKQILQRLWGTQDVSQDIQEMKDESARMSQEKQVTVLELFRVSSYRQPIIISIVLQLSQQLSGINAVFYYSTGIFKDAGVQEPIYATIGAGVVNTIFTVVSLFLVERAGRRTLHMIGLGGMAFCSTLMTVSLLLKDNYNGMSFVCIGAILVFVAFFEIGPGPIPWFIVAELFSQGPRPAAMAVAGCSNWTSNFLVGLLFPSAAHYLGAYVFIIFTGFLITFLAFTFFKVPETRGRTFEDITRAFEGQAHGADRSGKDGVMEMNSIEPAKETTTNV
Source text: as §1, §2, §3, §4

pIC50 [1] | pIC50 [2] | pIC50 [3] | pIC50 [4] | Structure (SMILES)
5.00 to 5.40 | ≥ 6.52 | 5.00 to 5.40 | 6.00 to 6.52 | Cc1ccc(CCNC(=O)c2cccc(N3C(=O)NC4CC3(C)Oc3c(OCc5cccnc5)cccc34)c2)cc1 (stereo not drawn) [Compound A10, 3-(2-Methyl-4-oxo-10-(pyridin-3-ylmethoxy)-5,6-dihydro-2H-2,6-methanobenzo[g][1,3,5]oxadiazocin-3(4H)-yl)-N-(4-methylphenethyl)benzamide]
4.60 to 5.00 | ≥ 6.52 | 4.60 to 5.00 | ≥ 6.52 | Cc1ccc(CCNC(=O)c2cccc(N3C(=O)NC4CC3(C)Oc3c(OCc5ccccc5)cccc34)c2)cc1 (stereo not drawn) [Compound A01, 3-(10-(Benzyloxy)-2-methyl-4-oxo-5,6-dihydro-2H-2,6-methanobenzo[g][1,3,5]oxadiazocin-3(4H)-yl)-N-(4-methylphenethyl)benzamide]
5.00 to 5.40 | ≥ 6.52 | 5.40 to 6.00 | ≥ 6.52 | Cc1ccc(CCNC(=O)c2cccc(N3C(=O)NC4CC3(C)Oc3c(OCc5ccccn5)cccc34)c2)cc1 (stereo not drawn) [Compound A11, 3-(2-Methyl-4-oxo-10-(pyridin-2-ylmethoxy)-5,6-dihydro-2H-2,6-methanobenzo[g][1,3,5]oxadiazocin-3(4H)-yl)-N-(4-methylphenethyl)benzamide]
< 4.60 | 5.40 to 6.00 | < 4.60 |  | Cc1ccc(CCNC(=O)c2cccc(N3C(=O)NC4CC3(C)Oc3c(OCc5nccn5C)cccc34)c2)cc1 (stereo not drawn) [Compound A16, 3-(2-Methyl-10-((1-methyl-1H-imidazol-2-yl)methoxy)-4-oxo-5,6-dihydro-2H-2,6-methanobenzo[g][1,3,5]oxadiazocin-3(4H)-yl)-N-(4-methylphenethyl)benzamide]
< 4.60 | 6.00 to 6.52 | 4.60 to 5.00 | 6.00 to 6.52 | Cc1ccc(OCCNC(=O)c2cccc(N3C(=O)NC4CC3(C)Oc3c(OCc5ccccc5)cccc34)c2)cc1 (stereo not drawn) [Compound A35, 3-(10-(benzyloxy)-2-methyl-4-oxo-5,6-dihydro-2H-2,6-methanobenzo[g][1,3,5]oxadiazocin-3(4H)-yl)-N-(2-(4-methylphenoxy)ethyl)benzamide]

The remaining lines, values behind:

Structure (SMILES) | pIC50 [1] | pIC50 [2] | pIC50 [3] | pIC50 [4]
CC12CC(NC(=O)N1c1cccc(C(=O)NCCc3ccccc3)c1)c1cccc(OCc3ccccc3)c1O2 (stereo not drawn) [Compound A36, 3-(10-(benzyloxy)-2-methyl-4-oxo-5,6-dihydro-2H-2,6-methanobenzo[g][1,3,5]oxadiazocin-3(4H)-yl)-N-(phenethyl)benzamide] | < 4.60 | 6.00 to 6.52 | 5.00 to 5.40 | 6.00 to 6.52
CC12CC(NC(=O)N1c1cccc(C(=O)NCCOc3ccccc3)c1)c1cccc(OCc3ccccc3)c1O2 (stereo not drawn) [Compound A21, 3-(10-(benzyloxy)-2-methyl-4-oxo-5,6-dihydro-2H-2,6-methanobenzo[g][1,3,5]oxadiazocin-3(4H)-yl)-N-(2-phenoxyethyl)benzamide] | < 4.60 | 5.40 to 6.00 | 4.60 to 5.00 | 5.40 to 6.00
CC12CC(NC(=O)N1c1cccc(C(=O)NCCCc3ccccc3)c1)c1cccc(OCc3ccccc3)c1O2 (stereo not drawn) [Compound A33, 3-(10-(benzyloxy)-2-methyl-4-oxo-5,6-dihydro-2H-2,6-methanobenzo[g][1,3,5]oxadiazocin-3(4H)-yl)-N-(3-phenylpropyl)benzamide] | < 4.60 | 6.00 to 6.52 | 5.40 to 6.00 | 6.00 to 6.52
Cc1ccc(CCN(C)C(=O)c2cccc(N3C(=O)NC4CC3(C)Oc3c(OCc5ccccc5)cccc34)c2)cc1 (stereo not drawn) [Compound A23, 3-(10-(benzyloxy)-2-methyl-4-oxo-5,6-dihydro-2H-2,6-methanobenzo[g][1,3,5]oxadiazocin-3(4H)-yl)-N-methyl-N-(4-methylphenethyl)benzamide] | < 4.60 | 6.00 to 6.52 | 5.00 to 5.40 | 6.00 to 6.52
COC(=O)c1cccc(N2C(=O)NC3CC2(C)Oc2c(OCc4ccccc4)cccc23)c1 (stereo not drawn) [Compound A37, methyl 3-(10-(benzyloxy)-2-methyl-4-oxo-5,6-dihydro-2H-2,6-methanobenzo[g][1,3,5]oxadiazocin-3(4H)-yl)benzoate] | < 4.60 | 5.40 to 6.00 | 4.60 to 5.00 | 5.40 to 6.00
